Columns and labels:
[1] = biological target: DAT (Homo sapiens, UniProt Q01959); test: DAT transporter assay (neurotransmitter transporter absorption assay); format: cell-based
Procedure: (§1) Bioactivity Test • I. D2 receptor affinity assay: The affinity of the compound to D2 receptor was determined by radioligand competition assay, and the cloned D2 receptor was expressed in HEK293 cell line. • II. D2 receptor function assay: The ability of the compound to antagonize the D2 receptor was determined using a calcium mobilization assay (FLIPR). • III. DAT receptor function assay: The ability of the compound to inhibit DAT was determined by neurotransmitter transporter absorption assay.
• HBSS1×, REPES 20 mM, BSA 0.1%.
• Lyophilized fluorescent dye 1 vial, Assay buffer 10 mL.
• BTCP—hydrochloride (Sigma)
• i) The medium was preheated in 37° C. water bath in advance for more than 30 minutes for later use. • j) The preheated medium was taken out, disinfected with 75% alcohol, and put into a biosafety cabinet. • k) The cultured cells were taken out from the […], and the medium was removed by a vacuum pump. 1× DPBS was added, incubated for a moment, and then removed by a vacuum pump. Appropriate amount of 0.05% trypsin-EDTA was added for cell digestion. The digestion was terminated by 10% FBS medium, and the cells were pipetted and dispersed. • l) The dispersed cells were transferred into a 50 mL centrifuge tube with a pipette.
• a) The reference compound was diluted in a ratio of 1:3 to 10 concentration gradients with the detection buffer containing 0.1% BSA, with the highest concentration being 2 μM. The compound to be tested was diluted to 20 uM with the detection buffer containing 0.1% BSA. • b) A centrifuge (750 rpm, 15 s) was used to spin off the culture solution in the cell culture plate, and the compound solution in step 1 was transferred to the cell culture plate (25 uL/well). • HC (High control): 25 μL of 0.1% BSA detection buffer containing 0.2% DMSO. • LC (Low control): 25 μL of solution containing 2 μM positive antagonist. • c) After centrifugation at 300 rpm for 15 seconds, the plate was incubated at 37° C. for 30 minutes. After the incubation with the compound was completed, a dye solution (25 μL/well) was added and incubated at 37° C. for 30 minutes.
Inhibitor % activity=100−(signal value per well−average value for LC well)/(average value for H well−average value for LC well)*100%.

[2] = biological target: T1, D2 receptor (Homo sapiens, UniProt P14416); test: D2 receptor affinity assay (radioligand competition, 3H-7-OH-DPAT); format: binding; details: cloned D2 receptor expressed in HEK293 cell line; 3H-7-OH-DPAT 1 nM
T1 construct: expressed in transfected cells; host or cells: HEK293
Procedure: as §1
• Experimental buffer: 50 mM Tris-HCl, pH 7.4, 5 mM MgCl2 • Washing buffer: 50 mM Tris-HCl pH 7.4, stored at 4° C. ready for use.
• The compound and positive control 7-OH-DPAT were serially diluted with DMSO, with the initial concentration of 2 mM and 4 times serial dilution, a total of 10 concentrations. 1 μL was transferred to the designated position of the 96-well plate. • 1 μL droperidol (final concentration 10 μM) was added to the positive control well. 1 μL DMSO was added to the negative control well.
• Receptor cell membrane was diluted to 10 μg/well with corresponding experimental buffer, with 100 μL cell membrane/well.
• 3H-7-OH-DPAT was diluted to 2 nM with corresponding experimental buffer, and the final concentration was 1 nM.
• After 100 μL of cell membrane and isotope were added, respectively, the reaction plate of the D2 receptor was incubated at room temperature for 1 hour. The GF/C filter plate was soaked in 0.3% PEI solution for more than half an hour. After the reaction was completed, the cell membrane was collected on the GF/C filter plate using the […], washed 4 times with cold washing buffer, and then dried in an oven at 50° C. for 1 hour. The dried GF/C filter plate was sealed at the bottom, 50 μL of scintillation fluid was added to each well and the well was sealed. Reads were obtained by MicroBeta and the data was analyzed using GraphPad Prism 5.0.
Ki=IC50/(1+isotope concentration/Kd)

Chain of DAT (Q01959 whole entry, species assumed): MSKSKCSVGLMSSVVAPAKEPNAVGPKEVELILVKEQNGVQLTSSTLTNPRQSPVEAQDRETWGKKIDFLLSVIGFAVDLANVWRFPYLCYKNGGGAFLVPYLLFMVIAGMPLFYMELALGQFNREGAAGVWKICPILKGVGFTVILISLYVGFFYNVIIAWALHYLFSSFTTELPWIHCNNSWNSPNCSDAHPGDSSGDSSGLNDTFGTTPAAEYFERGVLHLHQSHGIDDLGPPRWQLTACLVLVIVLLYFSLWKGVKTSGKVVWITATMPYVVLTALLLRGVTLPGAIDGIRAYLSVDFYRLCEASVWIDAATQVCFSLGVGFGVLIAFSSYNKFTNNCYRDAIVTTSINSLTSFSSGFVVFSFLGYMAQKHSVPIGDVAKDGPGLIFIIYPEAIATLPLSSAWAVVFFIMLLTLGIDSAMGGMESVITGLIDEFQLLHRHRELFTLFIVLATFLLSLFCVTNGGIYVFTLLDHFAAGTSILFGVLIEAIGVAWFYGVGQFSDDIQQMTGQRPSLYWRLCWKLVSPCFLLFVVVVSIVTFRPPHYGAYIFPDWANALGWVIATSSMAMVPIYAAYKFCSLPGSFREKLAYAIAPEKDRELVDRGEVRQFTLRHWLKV
T1 sequence (P14416 whole entry): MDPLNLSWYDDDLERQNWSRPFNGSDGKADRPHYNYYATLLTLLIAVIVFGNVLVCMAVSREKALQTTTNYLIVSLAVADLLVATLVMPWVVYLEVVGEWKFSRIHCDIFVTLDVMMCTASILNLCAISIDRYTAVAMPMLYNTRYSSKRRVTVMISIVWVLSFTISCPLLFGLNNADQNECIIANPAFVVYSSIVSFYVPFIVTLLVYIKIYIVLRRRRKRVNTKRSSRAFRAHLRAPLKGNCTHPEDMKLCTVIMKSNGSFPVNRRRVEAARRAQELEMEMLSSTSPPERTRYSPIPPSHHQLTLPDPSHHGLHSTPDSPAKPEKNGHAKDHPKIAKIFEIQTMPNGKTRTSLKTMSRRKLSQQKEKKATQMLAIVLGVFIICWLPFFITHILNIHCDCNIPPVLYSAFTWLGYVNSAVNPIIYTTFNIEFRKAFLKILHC

SMILES | IC50 [1] | IC50 [2]
Oc1cccc(C2CCN(Cc3c[nH]c4ccccc34)C2)c1 (racemic) [MDC-161502-002, 1-(indole-3-methyl)-3-(3-hydroxyphenyl)pyrrolidine] | 181 nM | 14 nM
O=S(=O)(CC(F)(F)F)Nc1cccc(C2CCN(Cc3c[nH]c4ccccc34)C2)c1 (stereo not drawn) [MDC-161502-006, 1-(indole-3-methyl)-3-(3-trifluoroethanesulfonamidophenyl)pyrrolidine] | 762 nM | 639 nM
O=S(=O)(Nc1cccc(C2CCN(Cc3c[nH]c4ccccc34)C2)c1)c1cccs1 (stereo not drawn) [MDC-161502-008, 1-(indole-3-methyl)-3-[3-(2-thiophenesulfonamido)phenyl]pyrrolidine] | 936 nM | 120 nM

Source: patent US20210024498A1, “TETRAHYDROPYRROLE COMPOUND, PREPARATION METHOD THEREFOR, PHARMACEUTICAL COMPOSITION CONTAINING SAME, AND USE THEREOF” (MEDICONNS (SHANGHAI) BIOPHARMACEUTICAL CO., LTD, priority 2017, published 2021)
